For orientation: IC50 means the concentration needed to halve the response being measured. Lower therefore signals greater potency.

This assay concerns the target Stimulator of interferon genes protein (Homo sapiens, UniProt Q86WV6). As to the kind of experiment: Human STING WT Binding Assay. The protocol: Cisbio Bioassays' human STING WT binding assay (#64BDSTGPEG & 64BDSTGPEH, Cisbio) is for quantitative measurement of human STING WT ligand using HTRF technology.1. Adding CompoundsNegative control: Dispense 5 μL of diluent into each negative control well. Standard: Dispense 5 μL of each Human STING WT Standard 2′3′-cGAMP (Std 0-Std 7) into each standard well. Compound: Dispense 5 μL of compound into each compound well.2. Adding ProteinsNegative control: Add 5 μL of detection buffer to all wells. Other wells: Add 5 μL of human STING WT protein 6His-tagged protein to all wells.3. Adding AntibodiesAdd 10 μL of premixed STING WT ligand d2 reagent and 6His Tb antibody working solution to all wells.4. RT IncubationSeal the plate and incubate 3 hours at RT or at Over Night if necessary.5. Reading PlateRemove the plate sealer and read on an HTRF compatible reader (PerkinElmer, USA). Results were analyzed with a two-wavelength signal ratio: intensity (665 nm)/intensity (620 nm).6.

Sequence of Stimulator of interferon genes protein (Q86WV6 whole entry): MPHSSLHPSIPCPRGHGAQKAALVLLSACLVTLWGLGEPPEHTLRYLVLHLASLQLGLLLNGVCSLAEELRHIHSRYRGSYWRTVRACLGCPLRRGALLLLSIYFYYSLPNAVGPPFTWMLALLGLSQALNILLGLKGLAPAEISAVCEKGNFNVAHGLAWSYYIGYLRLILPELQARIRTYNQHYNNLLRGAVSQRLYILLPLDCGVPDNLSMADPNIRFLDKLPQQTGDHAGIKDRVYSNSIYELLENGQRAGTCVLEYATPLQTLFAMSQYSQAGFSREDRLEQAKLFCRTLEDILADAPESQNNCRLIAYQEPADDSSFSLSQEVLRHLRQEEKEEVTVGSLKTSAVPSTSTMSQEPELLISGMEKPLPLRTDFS

With `COC1C=C2CN(C(=O)CCC(=O)O)CC2=CC1OCCCOC1C=C2CN(C(=O)CCC(=O)O)CC2=CC1OC` (stereo unspecified) [US20250108123, Example I-1], the IC50 is under 0.1 nM.

The values are drawn from BindingDB's records for patent US20250108123 (Jacobio Pharmaceuticals, 2025).
